Experimental data as given in BindingDB's records for doi:10.1016/j.bmc.2020.115887 (Duquesne University, 2021).

Assay: Inhibition of beta3 Tubulin (unknown origin) expressed in human HeLa cell line assessed as inhibition of cell proliferation measured after 48 hrs by SRB method

Work on `COc1cccc2cc(N(C)c3nc(N)nc4c3CCC4)ccc12` yielded an IC50 of 9.6 nM.
`COc1ccc(N(C)c2nc(C)nc3c2CCC3)cc1` showed an IC50 of 9.6 nM.
For `COc1cccc2cc(N(C)c3ncnc4c3CCC4)ccc12`, the IC50 was 43 nM.
Molecule `COc1ccc(N(C)c2nc(C)nc3c2CCC3)c2ccccc12` has an IC50 of 180 nM.
